In patent US7919247B2, “Simultaneous quantification of nucleic acids in diseased cells” (Pharmasset, Inc., priority 2000, dated 2011):
Like-named read-outs stand apart in the source and are kept apart here.

Key:
[1] = system: HIV-1 xxBRU (sensitive strain); assay: endogenous viral RT assay of culture supernatant, HIV-1 infected human PBMC
[2] = system: HIV-1 xxBRU (sensitive strain); assay: real-time RT-PCR HIV-1 viral load in culture supernatant, infected human PBMC
[3] = target: T1, mitochondrial RNA polymerase (Homo sapiens, UniProt O00411); assay: quantitative RT-PCR of mitochondrial COXII RNA calibrated against nuclear RNA transcripts; type: cell-based; details: normalized for no treatment
T1 construct: endogenous in cells; HepG2 inferred from the preceding paragraphs
Protocol: Similar results were also obtained if this technology was carried out in a quantitative reverse-transcriptase-PCR protocol. This approach measures the potential inhibition of antiviral compounds for the mitochondrial RNA polymerase, in comparison with the nuclear RNA polymerases I (generating mainly rRNA transcripts), RNA polymerase II (generating mainly mRNA transcripts), or of lesser importance, RNA polymerase III (generating mainly tRNA transcripts). To obtain such results, amplification of either rRNA, or -actin mRNA as calibrator is required.

[4] = target: T2, mitochondrial DNA polymerase γ (Homo sapiens, UniProt P54098)
T2 sequence (P54098 1-1239): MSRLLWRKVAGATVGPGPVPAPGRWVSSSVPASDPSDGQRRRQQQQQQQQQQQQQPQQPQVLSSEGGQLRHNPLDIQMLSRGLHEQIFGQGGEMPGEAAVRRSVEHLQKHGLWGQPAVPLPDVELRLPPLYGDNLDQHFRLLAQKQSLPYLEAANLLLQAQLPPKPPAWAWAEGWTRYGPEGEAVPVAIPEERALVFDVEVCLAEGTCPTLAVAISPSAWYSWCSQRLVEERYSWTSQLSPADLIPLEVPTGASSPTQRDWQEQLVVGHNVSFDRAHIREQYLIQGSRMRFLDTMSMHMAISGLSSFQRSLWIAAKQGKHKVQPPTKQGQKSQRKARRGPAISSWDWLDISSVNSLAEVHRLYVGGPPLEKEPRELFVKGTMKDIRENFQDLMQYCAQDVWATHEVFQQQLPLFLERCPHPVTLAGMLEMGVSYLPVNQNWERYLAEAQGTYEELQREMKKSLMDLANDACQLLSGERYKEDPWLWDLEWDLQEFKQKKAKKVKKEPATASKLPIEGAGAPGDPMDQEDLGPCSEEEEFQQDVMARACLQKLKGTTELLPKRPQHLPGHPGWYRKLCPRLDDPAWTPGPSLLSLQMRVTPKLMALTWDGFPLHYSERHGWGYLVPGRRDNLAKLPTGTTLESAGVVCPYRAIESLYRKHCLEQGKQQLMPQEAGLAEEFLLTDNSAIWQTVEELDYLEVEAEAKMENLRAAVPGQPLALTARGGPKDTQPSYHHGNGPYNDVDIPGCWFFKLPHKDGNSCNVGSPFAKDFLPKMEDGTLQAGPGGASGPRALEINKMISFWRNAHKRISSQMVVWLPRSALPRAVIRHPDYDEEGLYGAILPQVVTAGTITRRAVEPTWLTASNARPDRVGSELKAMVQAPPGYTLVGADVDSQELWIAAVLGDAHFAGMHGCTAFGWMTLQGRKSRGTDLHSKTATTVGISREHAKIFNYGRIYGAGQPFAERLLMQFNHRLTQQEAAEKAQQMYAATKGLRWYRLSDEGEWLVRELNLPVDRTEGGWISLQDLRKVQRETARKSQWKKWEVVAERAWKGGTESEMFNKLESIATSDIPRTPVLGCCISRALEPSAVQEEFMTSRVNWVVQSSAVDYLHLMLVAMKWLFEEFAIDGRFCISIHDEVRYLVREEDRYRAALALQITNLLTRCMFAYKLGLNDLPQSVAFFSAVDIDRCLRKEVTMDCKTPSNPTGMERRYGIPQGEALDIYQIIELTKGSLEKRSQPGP
T2 sequence (Q9UHN1 26-485 partner limits assumed): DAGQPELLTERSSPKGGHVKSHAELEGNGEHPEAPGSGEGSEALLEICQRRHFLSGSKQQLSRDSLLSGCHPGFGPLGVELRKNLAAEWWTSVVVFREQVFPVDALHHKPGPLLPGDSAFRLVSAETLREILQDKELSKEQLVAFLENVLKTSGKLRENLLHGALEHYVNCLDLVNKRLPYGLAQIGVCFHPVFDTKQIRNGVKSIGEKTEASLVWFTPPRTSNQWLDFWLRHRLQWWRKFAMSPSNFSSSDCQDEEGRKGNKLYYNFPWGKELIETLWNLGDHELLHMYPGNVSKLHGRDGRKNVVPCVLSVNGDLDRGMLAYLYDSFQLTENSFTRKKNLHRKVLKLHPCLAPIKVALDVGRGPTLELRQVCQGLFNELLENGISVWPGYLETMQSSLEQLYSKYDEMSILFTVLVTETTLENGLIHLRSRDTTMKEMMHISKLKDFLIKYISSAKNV

[5] = MTS/MTT dye toxicity assay; type: cell-based
Protocol: (§1) After a three day-incubation, or 4 for CEM, or 5 days for PBMC, cell viability and mitochondrial activity were measured in a colorimetric assay using the MTS- or MTT dye (Promega, Wis.).
(§2) The cytotoxicity testing as performed here is a standard technique. Briefly, cells are seeded in 96-well plates at various concentrations (dependent on cell type, duration of assay), typically at 5×10^3 cells per well, in the presence of increasing concentrations of the test compound (0, 1, 3, 10, 33, and 100 μM). After a three day-incubation, cell viability and mitochondrial activity are measured by adding the MTS-dye (Promega), followed by a 3 hours incubation. Afterwards the plates containing the dye are read at 490 nm. Such methodologies are well described and available from the manufacturer (Promega).

[6] = MTS/MTT dye toxicity assay; type: cell-based, human; details: human
Protocol: as §1, §2

[7] = system: CEM; assay: MTS/MTT dye toxicity assay; type: cell-based; details: CEM cells, evaluated up to 100 μM
Protocol: as §1, §2

[8] = system: VERO; assay: MTS/MTT dye toxicity assay; type: cell-based; details: Vero cells, evaluated up to 100 μM
Protocol: as §1, §2

[9] = system: PBMC; assay: MTS/MTT dye toxicity assay; type: cell-based, human; details: human PBMC, evaluated up to 100 μM
Protocol: as §1, §2

[10] = target: T2, mitochondrial DNA polymerase γ; assay: real-time PCR mitochondrial DNA polymerase toxicity (COXII vs β-actin DNA, comparative Ct) in HepG2 cells; details: 7-day incubation with up to 10 μM
[11] = xxBRU, RT assay, human PBMC, 5 days
[12] = xxBRU, real-time RT-PCR, human PBMC, 5 days
[13] = Human immunodeficiency virus 1, PBMC, 120 h

T1 sequence (O00411 42-1230): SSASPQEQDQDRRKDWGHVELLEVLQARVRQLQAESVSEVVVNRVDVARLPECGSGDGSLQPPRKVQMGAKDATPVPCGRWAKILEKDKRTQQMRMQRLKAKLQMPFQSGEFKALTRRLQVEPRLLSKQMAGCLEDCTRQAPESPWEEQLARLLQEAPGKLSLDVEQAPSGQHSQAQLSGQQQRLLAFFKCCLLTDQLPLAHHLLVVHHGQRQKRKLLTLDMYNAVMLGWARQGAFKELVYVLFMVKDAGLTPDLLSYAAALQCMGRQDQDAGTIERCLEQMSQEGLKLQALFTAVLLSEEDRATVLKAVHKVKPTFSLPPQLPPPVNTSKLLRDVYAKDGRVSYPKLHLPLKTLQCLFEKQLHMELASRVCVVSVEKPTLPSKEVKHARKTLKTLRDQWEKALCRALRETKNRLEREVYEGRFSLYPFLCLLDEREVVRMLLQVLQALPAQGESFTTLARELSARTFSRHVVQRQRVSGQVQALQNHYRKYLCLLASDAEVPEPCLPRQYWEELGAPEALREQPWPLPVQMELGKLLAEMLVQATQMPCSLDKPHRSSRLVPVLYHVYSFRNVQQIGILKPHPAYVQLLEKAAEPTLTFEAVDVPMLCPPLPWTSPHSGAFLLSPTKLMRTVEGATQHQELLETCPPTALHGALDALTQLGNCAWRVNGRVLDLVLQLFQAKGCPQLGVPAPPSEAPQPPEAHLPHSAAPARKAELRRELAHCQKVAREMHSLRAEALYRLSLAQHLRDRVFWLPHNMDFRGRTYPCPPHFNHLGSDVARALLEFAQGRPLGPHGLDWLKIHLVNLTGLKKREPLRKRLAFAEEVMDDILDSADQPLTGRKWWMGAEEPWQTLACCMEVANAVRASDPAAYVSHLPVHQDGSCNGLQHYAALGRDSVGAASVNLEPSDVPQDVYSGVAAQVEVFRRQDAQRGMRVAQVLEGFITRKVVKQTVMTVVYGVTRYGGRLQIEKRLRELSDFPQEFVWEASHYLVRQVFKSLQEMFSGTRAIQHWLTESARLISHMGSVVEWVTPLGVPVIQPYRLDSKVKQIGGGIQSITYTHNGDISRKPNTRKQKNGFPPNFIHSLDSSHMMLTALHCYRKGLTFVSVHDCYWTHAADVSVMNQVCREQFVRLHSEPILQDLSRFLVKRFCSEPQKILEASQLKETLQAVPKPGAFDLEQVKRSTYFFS

Cc1cn([C@H]2C=C[C@@H](CO)O2)c(=O)[nH]c1=O [d4T]
EC50 [1, 11]: 3.4 nM | EC90 [1, 11]: 130 nM | EC50 [2, 12]: 2.7 nM | EC90 [2, 12]: 120 nM

(−)-FTC [(-) FTC]
mitochondrial (COXII) RNA levels [3]: did not affect the COXII RNA levels | mitochondrial DNA reduction as compared to the no-drug control [4]: does not induce any significant mitochondrial DNA reduction | EC50 [1, 11]: 11 nM | EC90 [1, 11]: 50 nM | EC50 [2, 12]: 5.9 nM | EC90 [2, 12]: 88 nM

Nc1ccn([C@@H]2S[C@H](CO)C=C2F)c(=O)n1 [β-D-d4-2′F-(4-S-pentenyl)-C]
CC50 at 3 days ([5]; African green monkey): > 100 µM | CC50 at 3 days ([5]; human): > 100 µM | CC50 at 4 days ([5]; human): > 100 µM | CC50 at 5 days [6]: > 100 µM | EC50 [1, 13]: 5980 nM | EC90 [1, 13]: 23200 nM | EC50 [2, 13]: 2680 nM | EC90 [2, 13]: 18100 nM

Cc1cn([C@H]2C[C@H](N=[N+]=[N-])[C@@H](CO)O2)c(=O)[nH]c1=O [AZT]
EC50 [1, 11]: 3.4 nM | EC90 [1, 11]: 34 nM | EC50 [2, 12]: 3.9 nM | EC90 [2, 12]: 36 nM

Nc1ccn([C@@H]2CS[C@H](CO)O2)c(=O)n1 [3TC]
EC50 [1, 11]: 18 nM | EC90 [1, 11]: 77 nM | EC50 [2, 12]: 30 nM | EC90 [2, 12]: 120 nM

Nc1ccn([C@H]2CC[C@@H](CO)O2)c(=O)n1 [D-DDC]
mitochondrial (COXII) RNA levels [3]: significant reduction in mitochondrial RNA levels | mitochondrial DNA reduction as compared to the no-drug control [4]: dose-dependent reduction in mitochondrial DNA synthesis

Nc1ccn([C@H]2S[C@@H](CO)C=C2F)c(=O)n1 [β-L-d4-2′F-(4-S-pentenyl)-C]
CC50 at 3 days ([5]; African green monkey, VERO, read-out: CC50): > 100 µM | CC50 at 4 days ([5]; human, CEM, read-out: CC50): > 100 µM | CC50 at 3 days ([5]; human, HepG2, read-out: CC50): > 100 µM | cytotoxicity in MTS-dye assay [7]: no cytotoxicity was observed | cytotoxicity in MTS-dye assay [8]: no cytotoxicity was observed | CC50 at 5 days ([6]; PBMC, read-out: CC50): > 100 µM | cytotoxicity in MTS-dye assay [9]: no cytotoxicity was observed | EC50 [1, 13]: 1610 nM | EC90 [1, 13]: 11600 nM | EC50 [2, 13]: 400 nM | EC90 [2, 13]: 2680 nM | mitochondrial toxicity (γ-DNA polymerase inhibition) [10]: no toxicity
